Tested on: HCV replicon (wild type NS3-NS5B regions of HCV type 1b) in Huh-7 luc/neo cells
Test: HCV replicon assay (Huh-Luc cells, luciferase read-out)
Assay type: cell-based
Conditions: Hepatitis C virus, Huh-7, 72 h, three days incubation, luciferase activity
Excerpt: The in vitro antiviral activity against HCV of the compounds of formula I can be tested in a cellular HCV replicon system based on Lohmann et al. (1999) Science 285:110-113, with the further modifications described by Krieger et al. (2001) Journal of Virology 75: 4614-4624 (incorporated herein by reference), which is further exemplified in the examples section. This model, while not a complete infection model for HCV, is widely accepted as the most robust and efficient model of autonomous HCV RNA replication currently available. It will be appreciated that it is important to distinguish between compounds that specifically interfere with HCV functions from those that exert cytotoxic or cytostatic effects in the HCV replicon model, and as a consequence cause a decrease in HCV RNA or linked reporter enzyme concentration. Assays are known in the field for the evaluation of cellular cytotoxicity based for example on the activity of mitochondrial enzymes using fluorogenic redox dyes such as resazurin. Furthermore, cellular counter screens exist for the evaluation of non-selective inhibition of linked reporter gene activity, such as firefly luciferase. Appropriate cell types can be equipped by stable transfection with a luciferase reporter gene whose expression is dependent on a constitutively active gene promoter, and such cells can be used as a counter-screen to eliminate non-selective inhibitors.
The compounds of formula (I) were examined for inhibitory activity in the HCV replicon. This cellular assay is based on a bicistronic expression construct, as described by Lohmann et al. (1999) Science vol. 285 pp. 110-113 with modifications described by Krieger et al. (2001) Journal of Virology 75: 4614-4624, in a multi-target screening strategy.
In essence, the method was as follows:
The assay utilized the stably transfected cell line Huh-7 luc/neo (hereafter referred to as Huh-Luc). This cell line harbors an RNA encoding a bicistronic expression construct comprising the wild type NS3-NS5B regions of HCV type 1b translated from an Internal Ribosome Entry Site (IRES) from encephalomyocarditis virus (EMCV), preceded by a reporter portion (FfL-luciferase), and a selectable marker portion (neo^R, neomycine phosphotransferase). The construct is flanked by 5′ and 3′ NTRs (non-translated regions) from HCV type 1b. Continued culture of the replicon cells in the presence of G418 (neo^R) is dependent on the replication of the HCV RNA. The stably transfected replicon cells that express HCV RNA, which replicates autonomously and to high levels, encoding inter alia luciferase, were used for screening the antiviral compounds.
The replicon cells were plated in 384 well plates in the presence of the test and control compounds which were added in various concentrations. Following an incubation of three days, HCV replication was measured by assaying luciferase activity (using standard luciferase assay substrates and reagents and a Perkin Elmer ViewLux™ ultraHTS microplate imager). Replicon cells in the control cultures have high luciferase expression in the absence of any inhibitor. The inhibitory activity of the compound on luciferase activity was monitored on the Huh-Luc cells, enabling a dose-response curve for each test compound. EC50 values were then calculated, which represent the amount of compound required to decrease the level of detected luciferase activity by 50%, or more specifically, to reduce the ability of the genetically linked HCV replicon RNA to replicate.

| SMILES | EC50 [nM] |
| --- | --- |
| O=C(Cc1cccnc1)N1CCC[C@H]1c1ncc(C#Cc2ccc(-c3cnc([C@@H]4CCCN4C(=O)Cc4cccnc4)[nH]3)cc2)[nH]1 [Compound 2] | 1.5 |
| CC(C)[C@@H](C(=O)N1CCC[C@H]1c1ncc(C#Cc2ccc(-c3cnc([C@@H]4CCCN4C(=O)[C@H](C(C)C)N(C)C)[nH]3)cc2)[nH]1)N(C)C [Compound 21] | 36 |
| O=C(Nc1ccccc1)N1CCC[C@H]1c1ncc(C#Cc2ccc(-c3cnc([C@@H]4CCCN4C(=O)Nc4ccccc4)[nH]3)cc2)[nH]1 [Compound 3] | 810 |
| COC(=O)N[C@H](C(=O)N1CCC[C@H]1c1ncc(C#Cc2ccc(-c3cnc([C@@H]4CCCN4C(=O)[C@@H](NC(=O)OC)C(C)C)[nH]3)cc2)[nH]1)C(C)C [Compound 28] | 0.036 |
| O=C(CC1CCCCC1)N1CCC[C@H]1c1ncc(C#Cc2ccc(-c3cnc([C@@H]4CCCN4C(=O)CC4CCCCC4)[nH]3)cc2)[nH]1 [Compound 4] | 130 |
| CC(=O)N[C@@H](C(=O)N1CCC[C@H]1c1ncc(C#Cc2ccc(-c3cnc([C@@H]4CCCN4C(=O)[C@H](NC(C)=O)c4ccccc4)[nH]3)cc2)[nH]1)c1ccccc1 [Compound 32] | < 0.48 |
| O=C([C@@H](c1ccccc1)N1CCCCC1)N1CCC[C@H]1c1ncc(C#Cc2ccc(-c3cnc([C@@H]4CCCN4C(=O)[C@@H](c4ccccc4)N4CCCCC4)[nH]3)cc2)[nH]1 [Compound 37] | 0.03 |
| CNC(=O)N[C@H](C(=O)N1CCC[C@H]1c1ncc(C#Cc2ccc(-c3cnc([C@@H]4CCCN4C(=O)[C@@H](NC(=O)NC)C(C)C)[nH]3)cc2)[nH]1)C(C)C [Compound 36] | 0.69 |

From patent publication US9045463B2, “Phenyl ethynyl derivatives as hepatitis C virus inhibitors” (Janssen R&D Ireland, priority 2009, dated 2015)
